Test system: advanced metastatic cancer
Test: Antitumor activity: tumor response (RECIST 1.1) and progression-free survival
Format: in vivo, human
Method: Tumor response was assessed using RECIST 1.1. As for drugs with cytostatic antitumor activity, disease control rate was defined as the sum of stable disease (SD) and objective response rates; SD was considered clinically beneficial. Progression-free survival (PFS) was measured from treatment initiation until disease progression or death and was estimated using the Kaplan–Meier method.

[1] = PAM+ patients without confounding markers, M2698 monotherapy 110 mg, N=2
[2] = PAM+ patients without confounding markers, M2698 monotherapy 160 mg, N=4
[3] = PAM+ patients without confounding markers, M2698 monotherapy 200 mg, N=3
[4] = PAM+ patients without confounding markers, M2698 monotherapy 240 mg, N=16
[5] = PAM+ patients without confounding markers, M2698 monotherapy 320 mg, N=11
[6] = PAM+ patients without confounding markers, M2698 monotherapy 380 mg, N=4
[7] = PAM+ patients without confounding markers, M2698 monotherapy, Total of all dose levels, N=47
[8] = PAM+ patients, M2698 monotherapy 15 mg, N=3
[9] = PAM+ patients, M2698 monotherapy 30 mg, N=2
[10] = PAM+ patients, M2698 monotherapy 60 mg, N=4
[11] = PAM+ patients, M2698 monotherapy 75 mg, N=2
[12] = PAM+ patients, M2698 monotherapy 110 mg, N=3
[13] = PAM+ patients, M2698 monotherapy 160 mg, N=6
[14] = PAM+ patients, M2698 monotherapy 200 mg, N=3
[15] = PAM+ patients, M2698 monotherapy 240 mg, N=16
[16] = PAM+ patients, M2698 monotherapy 320 mg, N=11
[17] = PAM+ patients, M2698 monotherapy 380 mg, N=4
[18] = PAM+ patients, M2698 monotherapy, Total of all dose levels, N=54
[19] = monotherapy, PAM+ with confounding alterations, 1/7

## NC(=O)c1cccc2c(N[C@H](CN3CCC3)c3ccc(Cl)c(C(F)(F)F)c3)ncnc12 [M2698]
PAM+ patients without confounding markers, M2698 monotherapy 75 mg, N=1
  Response, SD at wk 6: 1(100.0) n (%)
[1]
  Median PFS: 15.1 months
  Response, NE: 1 (50.0) n (%)
  Response, PD: 0 (0.0) n (%)
  Response, SD at wk 6: 1 (50.0) n (%)
[2]
  Response, NE: 0 (0.0) n (%)
  Response, PD: 2 (50.0) n (%)
  Response, SD at wk 6: 2 (50.0) n (%)
[3]
  Median PFS: 4.1 months
  Response, NE: 0 (0.0) n (%)
  Response, PD: 1 (33.3) n (%)
  Response, SD at wk 6: 2 (66.7) n (%)
[4]
  Median PFS: 1.9 months
  Response, NE: 3 (18.8) n (%)
  Response, PD: 8 (50.0) n (%)
  Response, SD at wk 6: 5 (31.3) n (%)
[5]
  Median PFS: 2.8 months
  Response, NE: 1 (9.1) n (%)
  Response, PD: 5 (45.5) n (%)
  Response, SD at wk 6: 5 (45.5) n (%)
[6]
  Median PFS: 6.2 months
  Response, NE: 2 (50.0) n (%)
  Response, PD: 0 (0.0) n (%)
  Response, SD at wk 6: 2 (50.0) n (%)
[7]
  Median PFS: 2.8 months
  Response, NE: 7 (14.9) n (%)
  Response, PD: 19 (40.4) n (%)
  Response, SD at wk 6: 21 (44.7) n (%)
PAM+ patients, monotherapy
  Clinical benefit rate: 40.7%
[8]
  Median PFS: 4.1 months
  Response, NE: 0 (0.0) n (%)
  Response, PD: 1 (33.3) n (%)
  Response, SD at wk 6: 2 (66.7) n (%)
[9]
  Median PFS: 10.3 months
  Response, NE: 0 (0.0) n (%)
  Response, PD: 0 (0.0) n (%)
  Response, SD at wk 6: 2 (100) n (%)
[10]
  Median PFS: 1.4 months
  Response, NE: 1 (25.0) n (%)
  Response, PD: 3 (75.0) n (%)
  Response, SD at wk 6: 0 (0.0) n (%)
[11]
  Median PFS: 2.1 months
  Response, NE: 0 (0.0) n (%)
  Response, PD: 1 (50.0) n (%)
  Response, SD at wk 6: 1 (50.0) n (%)
[12]
  Median PFS: 8.2 months
  Response, NE: 1 (33.3) 1 (33.3) 1 (33.3) n (%)
  Response, PD: 1 (33.3) 1 (33.3) 1 (33.3) n (%)
  Response, SD at wk 6: 1 (33.3) 1 (33.3) 1 (33.3) n (%)
[13]
  Median PFS: 1.6 months
  Response, NE: 0 (0.0) n (%)
  Response, PD: 4 (66.7) n (%)
  Response, SD at wk 6: 2 (33.3) n (%)
[14]
  Median PFS: 4.1 months
  Response, NE: 0 (0.0) n (%)
  Response, PD: 1 (33.3) n (%)
  Response, SD at wk 6: 2 (66.7) n (%)
[15]
  Median PFS: 1.9 months
  Response, NE: 3 (18.8) n (%)
  Response, PD: 8 (50.0) n (%)
  Response, SD at wk 6: 5 (31.3) n (%)
[16]
  Median PFS: 2.8 months
  Response, NE: 1 (9.1) n (%)
  Response, PD: 5 (45.5) n (%)
  Response, SD at wk 6: 5 (45.5) n (%)
[17]
  Median PFS: 6.2 months
  Response, NE: 2 (50.0) n (%)
  Response, PD: 0 (0.0) n (%)
  Response, SD at wk 6: 2 (50.0) n (%)
[18]
  Median PFS: 2.4 months
  Response, NE: 8 (14.8) n (%)
  Response, PD: 24 (44.4) n (%)
  Response, SD at wk 6: 22 (40.7) n (%)
In vivo
  Overall clinical benefit rate at 12 weeks: 27.4%
Monotherapy cohort
  Patients with stable disease at 12 weeks: 27.4%
Monotherapy cohort overall
  Patients with stable disease: 40.3%
Monotherapy cohort, RECIST 1.1
  Objective response: no objective responses were noted
Monotherapy overall
  Median PFS: 2.3 months
monotherapy, PAM+ patients
  Median PFS: 2.4 months
[19]
  Stable disease at 6 weeks: 14.3%
  Stable disease at 12 weeks: 14.3%
monotherapy, PAM+ without confounding alterations, 14/47
  Stable disease at 12 weeks: 29.8%
monotherapy, PAM+ without confounding alterations, 21/47
  Stable disease at 6 weeks: 44.7%
monotherapy, all PAM+ without confounding alterations
  PFS of the five patients with PFS ≥ 6 months: 7.1–16.4 months
monotherapy, n = 7
  Median PFS, PAM+ patients with confounding alterations (KRAS, EGFR, AKT2): 1.4 months
monotherapy, n = 47
  Median PFS, PAM+ patients without confounding alterations: 2.8 months

Reference: publication PMC8371902, “Phase 1 study of M2698, a p70S6K/AKT dual inhibitor, in patients with advanced cancer” (Journal of Hematology & Oncology, 2021)
